Active and inactive are the calls of the source. The rule behind the calls is not given here.
Tests used:
[1] = target: T1, Protein arginine N-methyltransferase 1 (Homo sapiens, UniProt Q99873); assay: Inhibition of PRMT1 in human DLD1 cells assessed as reduction of asymmetric dimethylation of histone H4R3 level at 3 uM by Western blotting; type: cell-based; details: DLD-1
Target sequence in this assay (Q99873 whole entry, looked up): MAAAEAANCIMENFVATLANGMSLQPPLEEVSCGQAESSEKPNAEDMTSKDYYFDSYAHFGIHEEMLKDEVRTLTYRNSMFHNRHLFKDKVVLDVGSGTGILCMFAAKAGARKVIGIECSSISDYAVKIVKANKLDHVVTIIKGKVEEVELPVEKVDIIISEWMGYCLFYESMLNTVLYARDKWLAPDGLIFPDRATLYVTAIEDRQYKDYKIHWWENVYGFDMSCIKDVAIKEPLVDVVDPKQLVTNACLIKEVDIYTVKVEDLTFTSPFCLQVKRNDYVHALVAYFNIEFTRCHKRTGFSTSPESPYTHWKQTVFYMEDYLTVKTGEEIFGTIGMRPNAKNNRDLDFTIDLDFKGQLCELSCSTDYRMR

[2] = target: T2, Histone-arginine methyltransferase CARM1 (Homo sapiens, UniProt Q86X55); assay: Inhibition of PRMT4 (unknown origin) using biotinylated histone H4-derived peptide as substrate after 60 mins by AlphaLISA assay
T2 sequence (Q86X55 whole entry): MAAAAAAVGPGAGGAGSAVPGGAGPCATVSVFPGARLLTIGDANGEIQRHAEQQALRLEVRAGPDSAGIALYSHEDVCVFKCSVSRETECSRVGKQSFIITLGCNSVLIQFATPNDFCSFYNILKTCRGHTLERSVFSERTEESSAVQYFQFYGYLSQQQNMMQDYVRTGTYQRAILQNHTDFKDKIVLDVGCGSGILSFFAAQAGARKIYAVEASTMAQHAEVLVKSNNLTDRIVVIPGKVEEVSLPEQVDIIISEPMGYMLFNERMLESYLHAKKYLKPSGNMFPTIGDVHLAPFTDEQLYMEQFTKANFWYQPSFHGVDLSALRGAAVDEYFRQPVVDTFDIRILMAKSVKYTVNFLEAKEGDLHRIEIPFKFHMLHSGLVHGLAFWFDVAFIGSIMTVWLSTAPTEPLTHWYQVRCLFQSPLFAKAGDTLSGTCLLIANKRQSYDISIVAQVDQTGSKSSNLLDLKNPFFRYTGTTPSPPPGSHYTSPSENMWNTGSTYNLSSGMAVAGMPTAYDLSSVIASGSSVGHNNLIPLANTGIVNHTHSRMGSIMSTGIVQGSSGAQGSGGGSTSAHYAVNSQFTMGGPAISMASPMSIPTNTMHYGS

[3] = Cytotoxicity against human UM-UC-3 cells by MTT assay; type: functional, cell-based; details: UMUC3
[4] = target: T1, Protein arginine N-methyltransferase 1; assay: Inhibition of PRMT1 in human DLD1 cells assessed as effect on symmetric dimethylation of histone H3R8 level at 1 to 30 uM by Western blotting; type: cell-based; details: DLD-1
Target sequence in this assay (Q99873 whole entry, looked up): as the sequence (Q99873 whole entry, looked up) above

[5] = system: SH-SY5Y; assay: Cytotoxicity against human SH-SY5Y cells by MTT assay; type: functional, cell-based
[6] = target: Protein arginine N-methyltransferase 5 (Homo sapiens, UniProt O14744); assay: Inhibition of PRMT5 (unknown origin) using biotinylated histone H4-derived peptide as substrate after 60 mins by AlphaLISA assay
[7] = system: A-375; assay: Cytotoxicity against human A375 cells by MTT assay; type: functional, cell-based
[8] = target: T1, Protein arginine N-methyltransferase 1; assay: Non-competitive inhibition of PRMT1 (unknown origin) using biotinylated histone H4-derived peptide as substrate by Michaelis-Menten kinetic equation analysis
Target sequence in this assay (Q99873 whole entry): as the sequence (Q99873 whole entry, looked up) above

[9] = target: T1, Protein arginine N-methyltransferase 1; assay: Inhibition of PRMT1 (unknown origin) using biotinylated histone H4-derived peptide as substrate after 60 mins by AlphaLISA assay
Target sequence in this assay (Q99873 whole entry): as the sequence (Q99873 whole entry, looked up) above

[10] = system: MCF7; assay: Cytotoxicity against human MCF7 cells by MTT assay; type: functional, cell-based
[11] = Cytotoxicity against human T24 cells by MTT assay; type: functional, cell-based; details: T-24
[12] = Cytotoxicity against human DLD1 cells by MTT assay; type: functional, cell-based; details: DLD-1
[13] = target: Protein arginine N-methyltransferase 6 (Homo sapiens, UniProt Q96LA8); assay: Inhibition of PRMT6 (unknown origin) using biotinylated histone H4-derived peptide as substrate after 60 mins by AlphaLISA assay
[14] = target: T1, Protein arginine N-methyltransferase 1; assay: Inhibition of PRMT1 (unknown origin) using biotinylated histone H4-derived peptide as substrate at 50 uM after 60 mins by AlphaLISA assay
Target sequence in this assay (Q99873 whole entry, looked up): as the sequence (Q99873 whole entry, looked up) above

Chain of Protein arginine N-methyltransferase 5 (O14744 whole entry): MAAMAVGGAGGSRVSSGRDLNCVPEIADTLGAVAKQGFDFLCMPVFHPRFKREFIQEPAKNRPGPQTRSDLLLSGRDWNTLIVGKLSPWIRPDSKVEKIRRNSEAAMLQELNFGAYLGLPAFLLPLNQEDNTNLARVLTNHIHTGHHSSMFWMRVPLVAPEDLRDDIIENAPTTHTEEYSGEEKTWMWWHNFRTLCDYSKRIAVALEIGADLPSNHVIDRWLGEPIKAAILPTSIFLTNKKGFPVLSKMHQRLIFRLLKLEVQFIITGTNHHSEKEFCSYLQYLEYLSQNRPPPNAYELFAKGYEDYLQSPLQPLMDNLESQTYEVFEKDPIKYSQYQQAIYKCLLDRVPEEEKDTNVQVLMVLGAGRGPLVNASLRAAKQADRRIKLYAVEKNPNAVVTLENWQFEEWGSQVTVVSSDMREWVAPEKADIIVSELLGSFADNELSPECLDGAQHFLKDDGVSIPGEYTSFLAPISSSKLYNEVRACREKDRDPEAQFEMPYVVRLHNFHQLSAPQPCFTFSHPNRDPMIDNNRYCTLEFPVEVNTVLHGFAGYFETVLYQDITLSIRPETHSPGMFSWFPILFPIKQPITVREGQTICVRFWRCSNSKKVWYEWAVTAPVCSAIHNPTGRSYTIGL
Chain of Protein arginine N-methyltransferase 6 (Q96LA8 whole entry): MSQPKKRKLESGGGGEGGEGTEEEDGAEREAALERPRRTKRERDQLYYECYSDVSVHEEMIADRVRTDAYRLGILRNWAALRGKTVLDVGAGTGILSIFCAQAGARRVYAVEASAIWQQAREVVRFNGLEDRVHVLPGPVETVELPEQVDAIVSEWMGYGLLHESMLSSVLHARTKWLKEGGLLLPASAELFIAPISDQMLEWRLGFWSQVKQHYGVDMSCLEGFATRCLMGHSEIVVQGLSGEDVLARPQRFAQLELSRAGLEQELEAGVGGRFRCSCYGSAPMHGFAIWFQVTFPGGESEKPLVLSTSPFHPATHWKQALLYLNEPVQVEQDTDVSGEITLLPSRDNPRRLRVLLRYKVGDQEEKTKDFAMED

Compound | inhibition [14] [%] | IC50 [3] [µM] | IC50 [5] [µM] | IC50 [7] [µM] | IC50 [10] [µM] | IC50 [11] [µM] | IC50 [12] [µM] | further results
N#Cc1ccc(Nc2ncnc(Nc3ccc(C(=N)N)cc3)c2[N+](=O)[O-])cc1 |  | 45.4 | 11.4 | > 100 | 50.6 | 13.1 | 4.4 | inhibition [1]: Active; IC50 [2]: 10 µM; inhibition [4]: inactive; IC50 [6]: > 100 µM; Ki [8]: 1.7 µM; IC50 [9]: 2 µM; IC50 [13]: > 100 µM
N=C(N)c1ccc(Nc2ncnc(Nc3ccc(S(N)(=O)=O)cc3)c2[N+](=O)[O-])cc1 | 28 | 84.6 | 92.4 | > 100 | > 100 | 86.8 | 8.5 | 
O=C(Nc1ccc2c(O)cc(S(=O)(=O)O)cc2c1)Nc1ccc2c(O)cc(S(=O)(=O)O)cc2c1 |  | > 100 | > 100 | > 100 | > 100 | > 100 | > 100 | 
N=C(N)c1ccc(Nc2ncnc(Nc3ccc(C(N)=O)cc3)c2[N+](=O)[O-])cc1 |  |  |  |  |  |  |  | IC50 [9]: 9.3 µM
N=C(N)c1ccc(Nc2ncnc(NCC(N)=O)c2[N+](=O)[O-])cc1 | 49 |  |  |  |  |  |  | 
N=C(N)c1ccc(Nc2ncnc(Nc3ccccc3)c2[N+](=O)[O-])cc1 | 9 |  |  |  |  |  |  | 

Further lines, with some results ahead:

inhibition [14] [%] | Compound | IC50 [3] [µM] | IC50 [5] [µM] | IC50 [7] [µM] | IC50 [10] [µM] | IC50 [11] [µM] | IC50 [12] [µM] | further results
28 | N=C(N)c1ccc(Nc2ncnc(Nc3ccc(N)cc3)c2[N+](=O)[O-])cc1 |  |  |  |  |  |  | 
44 | COc1cc(Nc2ncnc(Nc3ccc(C(=N)N)cc3)c2[N+](=O)[O-])cc(OC)c1OC | 65.4 | 16.2 | 87.6 | 58.7 | 18.3 | 83.8 | 

Source: ChEMBL document CHEMBL3632463, “Discovery and structure-activity analysis of 4-((5-nitropyrimidin-4-yl)amino)benzimidamide derivatives as novel protein arginine methyltransferase 1 (PRMT1) inhibitors” (Bioorg Med Chem Lett, 2015)
